Experimental data published in ChEMBL document CHEMBL3611972, “Leishmanicidal, antiproteolytic, and mutagenic evaluation of alkyltriazoles and alkylphosphocholines” (Eur J Med Chem, 2015).

Columns and labels:
[1] = system: Salmonella typhimurium; assay: Mutagenicity in Salmonella typhimurium TA102 assessed as mutagenicity index at 905.66 uM/plate incubated for 90 mins at 37 degC in presence of liver S9 fractions by Ames test relative to control; assay type: toxicity, organism-based; settings: salmonella enterica subsp. enterica serovar typhimurium, s9, 1.5 h
[2] = Mutagenicity in CHOK1 cells assessed as induction of chromosomal DNA mutation by measuring nuclear division index level at 14.51 to 58.04 incubated for 3 hrs by fluorescence microscopy; assay type: toxicity, cell-based, Cricetulus griseus; settings: chinese hamster, cho-k1, 3 h
[3] = system: Salmonella typhimurium; assay: Mutagenicity in Salmonella typhimurium TA100 assessed as mutagenicity index at 313.73 uM/plate incubated for 90 mins at 37 degC in presence of liver S9 fractions by Ames test relative to control; assay type: toxicity, organism-based; settings: salmonella enterica subsp. enterica serovar typhimurium, s9, 1.5 h
[4] = system: Salmonella typhimurium; assay: Mutagenicity in Salmonella typhimurium TA100 assessed as mutagenicity index at 1454.55 uM/plate incubated for 90 mins at 37 degC in presence of liver S9 fractions by Ames test relative to control; assay type: toxicity, organism-based; settings: salmonella enterica subsp. enterica serovar typhimurium, s9, 1.5 h
[5] = system: Salmonella typhimurium; assay: Mutagenicity in Salmonella typhimurium TA102 assessed as mutagenicity index at 1454.55 uM/plate incubated for 90 mins at 37 degC in presence of liver S9 fractions by Ames test relative to control; assay type: toxicity, organism-based; settings: salmonella enterica subsp. enterica serovar typhimurium, s9, 1.5 h
[6] = system: Salmonella typhimurium; assay: Mutagenicity in Salmonella typhimurium TA98 assessed as mutagenicity index at 1454.55 uM/plate incubated for 90 mins at 37 degC in presence of liver S9 fractions by Ames test relative to control; assay type: toxicity, organism-based; settings: salmonella enterica subsp. enterica serovar typhimurium, s9, 1.5 h
[7] = system: Salmonella typhimurium; assay: Mutagenicity in Salmonella typhimurium TA98 assessed as mutagenicity index at 1454.55 uM/plate incubated for 90 mins at 37 degC in absence of liver S9 fractions by Ames test relative to control; assay type: toxicity, organism-based; settings: salmonella enterica subsp. enterica serovar typhimurium, 1.5 h
[8] = system: Salmonella typhimurium; assay: Mutagenicity in Salmonella typhimurium TA97a assessed as mutagenicity index at 1185.19 uM/plate incubated for 90 mins at 37 degC in absence of liver S9 fractions by Ames test relative to control; assay type: toxicity, organism-based; settings: salmonella enterica subsp. enterica serovar typhimurium, 1.5 h
[9] = system: Salmonella typhimurium; assay: Mutagenicity in Salmonella typhimurium TA98 assessed as mutagenicity index at 905.66 uM/plate incubated for 90 mins at 37 degC in absence of liver S9 fractions by Ames test relative to control; assay type: toxicity, organism-based; settings: salmonella enterica subsp. enterica serovar typhimurium, 1.5 h
[10] = system: Salmonella typhimurium; assay: Mutagenicity in Salmonella typhimurium TA102 assessed as mutagenicity index at 1454.55 uM/plate incubated for 90 mins at 37 degC in absence of liver S9 fractions by Ames test relative to control; assay type: toxicity, organism-based; settings: salmonella enterica subsp. enterica serovar typhimurium, 1.5 h
[11] = system: Salmonella typhimurium; assay: Mutagenicity in Salmonella typhimurium TA100 assessed as mutagenicity index at 616.38 uM/plate incubated for 90 mins at 37 degC in absence of liver S9 fractions by Ames test relative to control; assay type: toxicity, organism-based; settings: salmonella enterica subsp. enterica serovar typhimurium, 1.5 h
[12] = system: Salmonella typhimurium; assay: Mutagenicity in Salmonella typhimurium TA98 assessed as mutagenicity index at 313.73 uM/plate incubated for 90 mins at 37 degC in absence of liver S9 fractions by Ames test relative to control; assay type: toxicity, organism-based; settings: salmonella enterica subsp. enterica serovar typhimurium, 1.5 h
[13] = system: Salmonella typhimurium; assay: Mutagenicity in Salmonella typhimurium TA97a assessed as mutagenicity index at 1454.55 uM/plate incubated for 90 mins at 37 degC in presence of liver S9 fractions by Ames test relative to control; assay type: toxicity, organism-based; settings: salmonella enterica subsp. enterica serovar typhimurium, s9, 1.5 h
[14] = system: Salmonella typhimurium; assay: Mutagenicity in Salmonella typhimurium TA100 assessed as mutagenicity index at 435.85 uM/plate incubated for 90 mins at 37 degC in presence of liver S9 fractions by Ames test relative to untreated control; assay type: toxicity, organism-based; settings: salmonella enterica subsp. enterica serovar typhimurium, s9, 1.5 h
[15] = system: Salmonella typhimurium; assay: Mutagenicity in Salmonella typhimurium TA102 assessed as mutagenicity index at 150.98 uM/plate incubated for 90 mins at 37 degC in presence of liver S9 fractions by Ames test relative to untreated control; assay type: toxicity, organism-based; settings: salmonella enterica subsp. enterica serovar typhimurium, s9, 1.5 h
[16] = system: Salmonella typhimurium; assay: Mutagenicity in Salmonella typhimurium TA97a assessed as mutagenicity index at 150.98 uM/plate incubated for 90 mins at 37 degC in absence of liver S9 fractions by Ames test relative to untreated control; assay type: toxicity, organism-based; settings: salmonella enterica subsp. enterica serovar typhimurium, 1.5 h
[17] = system: Salmonella typhimurium; assay: Mutagenicity in Salmonella typhimurium TA98 assessed as mutagenicity index at 570.37 uM/plate incubated for 90 mins at 37 degC in absence of liver S9 fractions by Ames test relative to untreated control; assay type: toxicity, organism-based; settings: salmonella enterica subsp. enterica serovar typhimurium, 1.5 h
[18] = system: Salmonella typhimurium; assay: Mutagenicity in Salmonella typhimurium TA102 assessed as mutagenicity index at 570.37 uM/plate incubated for 90 mins at 37 degC in absence of liver S9 fractions by Ames test relative to untreated control; assay type: toxicity, organism-based; settings: salmonella enterica subsp. enterica serovar typhimurium, 1.5 h
[19] = system: Salmonella typhimurium; assay: Mutagenicity in Salmonella typhimurium TA97a assessed as mutagenicity index at 570.37 uM/plate incubated for 90 mins at 37 degC in absence of liver S9 fractions by Ames test relative to untreated control; assay type: toxicity, organism-based; settings: salmonella enterica subsp. enterica serovar typhimurium, 1.5 h
[20] = system: Salmonella typhimurium; assay: Mutagenicity in Salmonella typhimurium TA98 assessed as mutagenicity index at 435.85 uM/plate incubated for 90 mins at 37 degC in absence of liver S9 fractions by Ames test relative to untreated control; assay type: toxicity, organism-based; settings: salmonella enterica subsp. enterica serovar typhimurium, 1.5 h
[21] = system: Salmonella typhimurium; assay: Mutagenicity in Salmonella typhimurium TA100 assessed as mutagenicity index at 570.37 uM/plate incubated for 90 mins at 37 degC in absence of liver S9 fractions by Ames test relative to untreated control; assay type: toxicity, organism-based; settings: salmonella enterica subsp. enterica serovar typhimurium, 1.5 h
[22] = system: Salmonella typhimurium; assay: Mutagenicity in Salmonella typhimurium TA102 assessed as mutagenicity index at 435.85 uM/plate incubated for 90 mins at 37 degC in absence of liver S9 fractions by Ames test relative to untreated control; assay type: toxicity, organism-based; settings: salmonella enterica subsp. enterica serovar typhimurium, 1.5 h
[23] = system: Salmonella typhimurium; assay: Mutagenicity in Salmonella typhimurium TA102 assessed as mutagenicity index at 570.37 uM/plate incubated for 90 mins at 37 degC in presence of liver S9 fractions by Ames test relative to untreated control; assay type: toxicity, organism-based; settings: salmonella enterica subsp. enterica serovar typhimurium, s9, 1.5 h
[24] = system: Salmonella typhimurium; assay: Mutagenicity in Salmonella typhimurium TA102 assessed as mutagenicity index at 700.00 uM/plate incubated for 90 mins at 37 degC in presence of liver S9 fractions by Ames test relative to untreated control; assay type: toxicity, organism-based; settings: salmonella enterica subsp. enterica serovar typhimurium, s9, 1.5 h
[25] = system: Salmonella typhimurium; assay: Mutagenicity in Salmonella typhimurium TA100 assessed as mutagenicity index at 700.00 uM/plate incubated for 90 mins at 37 degC in absence of liver S9 fractions by Ames test relative to untreated control; assay type: toxicity, organism-based; settings: salmonella enterica subsp. enterica serovar typhimurium, 1.5 h
[26] = system: Salmonella typhimurium; assay: Mutagenicity in Salmonella typhimurium TA98 assessed as mutagenicity index at 296.15 uM/plate incubated for 90 mins at 37 degC in presence of liver S9 fractions by Ames test relative to untreated control; assay type: toxicity, organism-based; settings: salmonella enterica subsp. enterica serovar typhimurium, s9, 1.5 h
[27] = system: Salmonella typhimurium; assay: Mutagenicity in Salmonella typhimurium TA100 assessed as mutagenicity index at 150.98 uM/plate incubated for 90 mins at 37 degC in absence of liver S9 fractions by Ames test relative to untreated control; assay type: toxicity, organism-based; settings: salmonella enterica subsp. enterica serovar typhimurium, 1.5 h
[28] = system: Salmonella typhimurium; assay: Mutagenicity in Salmonella typhimurium TA98 assessed as mutagenicity index at 700.00 uM/plate incubated for 90 mins at 37 degC in presence of liver S9 fractions by Ames test relative to untreated control; assay type: toxicity, organism-based; settings: salmonella enterica subsp. enterica serovar typhimurium, s9, 1.5 h
[29] = system: Salmonella typhimurium; assay: Mutagenicity in Salmonella typhimurium TA97a assessed as mutagenicity index at 296.15 uM/plate incubated for 90 mins at 37 degC in absence of liver S9 fractions by Ames test relative to untreated control; assay type: toxicity, organism-based; settings: salmonella enterica subsp. enterica serovar typhimurium, 1.5 h
[30] = system: Salmonella typhimurium; assay: Mutagenicity in Salmonella typhimurium TA98 assessed as mutagenicity index at 150.98 uM/plate incubated for 90 mins at 37 degC in presence of liver S9 fractions by Ames test relative to untreated control; assay type: toxicity, organism-based; settings: salmonella enterica subsp. enterica serovar typhimurium, s9, 1.5 h
[31] = system: Salmonella typhimurium; assay: Mutagenicity in Salmonella typhimurium TA100 assessed as mutagenicity index at 700.00 uM/plate incubated for 90 mins at 37 degC in presence of liver S9 fractions by Ames test relative to untreated control; assay type: toxicity, organism-based; settings: salmonella enterica subsp. enterica serovar typhimurium, s9, 1.5 h

In the case of CCOC(=O)c1cn(CCCCCCCCCOS(C)(=O)=O)nn1, the Activity_index [1] was 1.3, the Activity [2] was “Non-toxic” and the Activity_index [3] was 0.9. It also gave an Activity_index [4] of 0.9, an Activity_index [5] of 1.2 and an Activity_index [6] of 0.8. For the same compound, the Activity_index [7] was 1.4, the Activity_index [8] was 1.3 and the Activity_index [9] was 1.2. The Activity_index [10] was 1.1, the Activity_index [11] was 1.3 and the Activity_index [12] was 1.5. The Activity_index [13] was 0.8.
Work on CS(=O)(=O)OCCCCCCCCCCCCn1cc(CCCO)nn1 yielded an Activity_index [14] of 0.7, an Activity_index [15] of 1.1 and an Activity_index [16] of 1.3. It also gave an Activity_index [17] of 1.3, an Activity_index [18] of 1 and an Activity_index [19] of 0.9. For the same compound, the Activity_index [20] was 1.1, the Activity_index [21] was 1.3 and the Activity_index [22] was 0.9. It also gave an Activity_index [23] of 1.4, an Activity_index [24] of 1.4 and an Activity_index [25] of 1. For the same compound, the Activity_index [26] was 1.1, the Activity_index [27] was 1.1 and the Activity_index [28] was 1.2. For the same compound, the Activity_index [29] was 1.1, the Activity_index [30] was 1.1 and the Activity_index [31] was 0.9.
